From patent publication EP1210336B1, “SUBSTITUTED BENZIMIDAZOLES AS NON-NUCLEOSIDE INHIBITORS OF REVERSE TRANSCRIPTASE” (THE UNITED STATES OF AMERICA, as represented by the …, priority 1999, dated 2001)
Like-named read-outs stand apart in the source and are kept apart here.

Experiments:
[1] = tested on: HIV-1 isolate 4xAZT/L100I; assay: Cytopathic cell killing assay, cross-resistance profile, infected MT-4 cells; type: cell-based
In short: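 Cytopathic protection assay: cells at 5 x 10^3/well infected with pre-titered HIV isolate (e.g., MOI 0.01-0.05), compound serial half-log dilutions in triplicate.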

[2] = tested on: HIV-1 variant Y188C; assay: as above; type: cell-based
In short: (§1)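 Cytopathic protection format: 5 x 10^3 cells/well, HIV-1 WT or RT mutant, MOI ~0.01-0.05 (full killing by d6); triplicate half-log drug series; 37°C, 6 d; XTT read at 450 nm; uninfected drug wells for cytotoxicity.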

[3] = tested on: HIV-1 variant K101E; assay: as above; type: cell-based
In short: as §1

[4] = tested on: HIV-1 variant V106A; assay: as above; type: cell-based
In short: as §1

[5] = tested on: HIV-1 variant L74V; assay: as above; type: cell-based
In short: as §1

[6] = tested on: HIV-1 variant K103N; assay: as above; type: cell-based; conditions: for EC50: isolate K103N
In short: as §1

[7] = tested on: HIV-1 variant V179D; assay: as above; type: cell-based; conditions: isolate V179D
In short: as §1

[8] = tested on: HIV-1 variant V108I; assay: as above; type: cell-based
In short: as §1

[9] = tested on: HIV-1 isolate 4xAZT/Y181C; assay: as above; type: cell-based
In short: as §1

[10] = tested on: HIV-1 variant L100I; assay: as above; type: cell-based
In short: as §1

[11] = tested on: NL4-3 (WT); assay: as above; type: cell-based, HIV-1
In short: as §1

[12] = target: T1, HIV-1 WT RT (Human immunodeficiency virus type 1 group M subtype B, UniProt P03366); assay: biochemical; conditions: for inhibition at 10 µM: read-out: %inhibn (10µM)
T1 construct: purified RT protein (0.015 mg/mL) was incubated in a 100 µL reaction mixture

[13] = Human immunodeficiency virus 1, MT4, Table 4, isolate 4xAZT/L.1001
[14] = Human immunodeficiency virus 1, MT4, Table 8, isolate 4XA7T L 1001
[15] = Human immunodeficiency virus 1, MT4, Table 9, isolate 4XAZT /L1001
[16] = Human immunodeficiency virus 1, MT4, Table 4, isolate Y188C
[17] = Human immunodeficiency virus 1, MT4, Table 8, isolate Y 188C
[18] = Human immunodeficiency virus 1, MT4, Table 9, isolate Y188C
[19] = Human immunodeficiency virus 1, MT4, Table 4, isolate K101E
[20] = Human immunodeficiency virus 1, MT4, Table 8, isolate K101E
[21] = Human immunodeficiency virus 1, MT4, Table 9, isolate KIOIE
[22] = Human immunodeficiency virus 1, MT4, Table 4, isolate V106A
[23] = Human immunodeficiency virus 1, MT4, Table 8, isolate V 106A
[24] = Human immunodeficiency virus 1, MT4, Table 9, isolate V106A
[25] = Human immunodeficiency virus 1, MT4, Table 4, isolate L74V
[26] = Human immunodeficiency virus 1, MT4, Table 8, isolate 1.74V
[27] = Human immunodeficiency virus 1, MT4, Table 9, isolate 1.74 V
[28] = Human immunodeficiency virus 1, MT4, Table 4
[29] = Human immunodeficiency virus 1, MT4, Table 8
[30] = Human immunodeficiency virus 1, MT4, Table 9
[31] = Human immunodeficiency virus 1, MT4, Table 4, isolate V108I
[32] = Human immunodeficiency virus 1, MT4, Table 8, isolate V1081
[33] = Human immunodeficiency virus 1, MT4, Table 9, isolate V1081
[34] = Human immunodeficiency virus 1, MT4, Table 4, isolate 4xAZT/Y181C
[35] = Human immunodeficiency virus 1, MT4, Table 8, isolate 4XAZT /Y181C
[36] = Human immunodeficiency virus 1, MT4, Table 4, isolate L1001
[37] = Human immunodeficiency virus 1, MT4, Table 8, isolate 1.1001
[38] = Human immunodeficiency virus 1, MT4, Table 9, isolate L1001
[39] = Human immunodeficiency virus 1, NL43, MT4, Table 4, isolate NL4-3 (WT)
[40] = Human immunodeficiency virus 1, NL43, MT4, Table 8, isolate N1.43
[41] = Human immunodeficiency virus 1, NL43, MT4, Table 9, isolate NL4.3
[42] = Table 1, WT RT, 10 µM drug concentration

SMILES: Fc1cccc(F)c1C1SCc2nc3ccccc3n21 (centres unmarked) [TZB, 1-(2,6-difluorophenyl)-1H,3H-thiazolo[3,4-a]benzimidazole, reference compound]
- EC50 [1, 13]: 1700 nM
- EC50 [1, 14]: 1100 nM
- EC50 [1, 15]: 1100 nM
- EC50 [2, 16]: > 20 µM
- EC50 [2, 17]: > 20 µM
- EC50 [2, 18]: > 20 µM
- EC50 [3, 19]: > 20 µM
- EC50 [3, 20]: > 10 µM
- EC50 [3, 21]: > 10 µM
- EC50 [4, 22]: > 20000 nM
- EC50 [4, 23]: 5700 nM
- EC50 [4, 24]: > 10000 nM
- EC50 [5, 25]: 700 nM
- EC50 [5, 26]: 800 nM
- EC50 [5, 27]: 500 nM
- EC50 [6, 28]: > 20 µM
- EC50 [6, 29]: > 10 µM
- EC50 [6, 30]: > 20 µM
- activity against the K103N mutation / isolate ([6]; result in words, cytopathic cell killing assay): ineffective
- EC50 [7, 28]: 3100 nM
- EC50 [7, 29]: > 10000 nM
- EC50 [7, 30]: 3900 nM
- EC50 [8, 31]: 9.7 µM
- EC50 [8, 32]: 3.9 µM
- EC50 [8, 33]: 5.7 µM
- EC50 [9, 34]: 14500 nM
- EC50 [9, 35]: > 10000 nM
- EC50 ([9]; Human immunodeficiency virus 1, MT4, Table 9, isolate 4XAZT /Y181C): > 10000 nM
- EC50 [10, 36]: 12.2 µM
- EC50 [10, 37]: 6.6 µM
- EC50 [10, 38]: 6.6 µM
- EC50 [11, 39]: 1.7 µM
- EC50 [11, 40]: 10 µM
- EC50 [11, 41]: 1 µM
- IC50 [12]: 500 nM
- inhibition at 10 µM [12, 42]: 84%

SMILES: Cc1cccc2c1nc(-c1c(F)cccc1F)n2Cc1c(F)cccc1F [compound 33, 1-(2,6-difluorobenzyl)-2-(2,6-difluorophenyl)-4-methylbenzimidazole]
- EC50 [1, 13]: 200 nM
- EC50 [1, 14]: 200 nM
- EC50 [1, 15]: 200 nM
- EC50 [2, 16]: 2.3 µM
- EC50 [2, 17]: 3 µM
- EC50 [2, 18]: 3 µM
- EC50 ([2]; Human immunodeficiency virus 1, MT4, Table 10 (values in µM), isolate Y188C): 2.3 µM
- EC50 [3, 19]: 16.7 µM
- EC50 [3, 20]: > 10 µM
- EC50 [3, 21]: > 10 µM
- EC50 ([3]; Human immunodeficiency virus 1, MT4, Table 10 (values in µM), isolate K101E): 16.7 µM
- EC50 [4, 22]: 20000 nM
- EC50 [4, 23]: > 10000 nM
- EC50 [4, 24]: > 10000 nM
- EC50 [5, 25]: 100 nM
- EC50 [5, 26]: 300 nM
- EC50 [5, 27]: 300 nM
- EC50 [6, 28]: 8.1 µM
- EC50 [6, 29]: > 20 µM
- EC50 [6, 30]: > 20 µM
- EC50 ([6]; Human immunodeficiency virus 1, MT4, Table 10 (values in µM)): 8.1 µM
- EC50 [7, 28]: 500 nM
- EC50 [7, 29]: 700 nM
- EC50 [7, 30]: 700 nM
- EC50 [8, 31]: 2.8 µM
- EC50 [8, 32]: 2.8 µM
- EC50 [8, 33]: 2.8 µM
- EC50 ([8]; Human immunodeficiency virus 1, MT4, Table 10 (values in µM), isolate V108l): 2.8 µM
- EC50 [9, 34]: 3500 nM
- EC50 [9, 35]: 3500 nM
- EC50 [10, 36]: 0.3 µM
- EC50 [10, 37]: 0.3 µM
- EC50 [10, 38]: 0.3 µM
- EC50 ([10]; Human immunodeficiency virus 1, MT4, Table 10 (values in µM), isolate L1001): 0.3 µM
- EC50 [11, 39]: 0.5 µM
- EC50 [11, 40]: 0.5 µM
- EC50 [11, 41]: 0.5 µM
- EC50 ([11]; Human immunodeficiency virus 1, NL43, MT4, Table 10 (values in µM), isolate NL4-3 (WT)): 0.5 µM
- -fold better in the inhibition of the various viral isolates than the des-methyl analog 26 ([11]; various viral isolates of Table 4): 3- to 4 fold
- IC50 ([12]; HIV-1 WT RT, read-out: IC50): 200 nM
- inhibition at 10 µM [12, 42]: 92%
- IC50 ([12]; Table 1, quantity of drug required to reduce WT RT enzyme activity by 50%, read-out: IC50): 200 nM
- %inhibn (10µM) ([12]; Table 2, WT RT, 10 µM drug concentration): 92%
- IC50 ([12]; Table 7, HIV-1 WT RT, read-out: IC50): 200 nM
- inhibition at 1 µM ([12]; Table 7, WT HIV-1 RT, 1 µM drug, read-out: %inhibn (1µM)): 71%
- IC50 ([12]; Table 11, WT RT, read-out: IC50): 200 nM
- IC50 ([12]; WT RT, read-out: IC50): 200 nM
